Laboratory results published in PMC7321169, “N-Alkylaminoferrocene-Based Prodrugs Targeting Mitochondria of Cancer Cells” (Molecules, 2020).

Tests used:
[1] = Generation of ROS in cell free settings (2′,7′-dichlorofluorescin oxidation in the presence of H2O2); details: H2O2 10 mM; for Initial rate (dF/dt)0 of DCFH oxidation in the presence of H2O2: compound 49.5 μM, DCFH 10 μM, GSH 5 mM, EDTA 10 mM, MOPS buffer, 37 °C; for Activity in DCFH oxidation assay relative to prodrug 5: more active than 5, 49.5 μM
Procedure: 2′,7′-Dichlorofluorescin diacetate (DCFH-DA, 4.9 mg) was dissolved in 100 µL DMF and mixed with 0.1 M NaOH (900 µL). This mixture was incubated on a shaker for 30 min at 25 °C in the dark to obtain 10 mM 2′,7′-dichlorofluorescin (DCFH) stock solution. Next, 3-(N-morpholino)propanesulfonic acid buffer (MOPS buffer 100 mM, pH: 7.4) containing N,N,N’,N’-ethylenediaminetetraacetic acid (EDTA, 10 mM), glutathione (GSH, 5 mM) and H2O2 (10 mM) was prepared. Finally, DCFH was diluted in this buffer to 10 µM as the final concentration. Monitoring of the fluorescence was started (λex: 501 nm, λem: 525 nm). […] DMF and FeSO4 in DMF were used as controls. The measurement was conducted for 300 min (Table S2, Figure 1A).

BL-2 cells = test: Viability of suspension BL-2 cells (MTT); type: cell-based
Procedure: The suspension of BL-2 cells in the RPMI 1640 medium containing 5% FBS (for 24- and 48 h assays) or 10% FBS (for 96 h assays) 1% L-glutamine, and 1% penicillin/streptomycin was spread in the wells of a 96-well microtiter plate. Every plate contained 50,000 cells (with the exception of the 96h-experiment, for which 25,000 cells were used) per well per 100 μL. Stock solutions of prodrugs of different concentrations (1 μL, solvent DMSO) were added to the wells and incubated for 24–96 h. Four experiments were conducted for each concentration of the prodrug. Finally, 3-(4,5-dimethylthiazol-2-yl)-2,5-diphenyltetrazolium bromide (MTT; 20 μL of the solution prepared by dissolving MTT (5 mg) in PBS buffer (1 mL)) was added to each well, incubated for 3 h, treated with sodium dodecyl sulfate (SDS) solution (90 μL, 10% solution in 0.01 M aqueous HCl), and incubated overnight. Then the intensity of absorbance at 590 nm was measured (MTT is converted to blue dye (λmax = 590 nm) in live cells). The absorbance at 690 nm was taken as a baseline value.

A2780 cells = test: Viability of adherent A2780 cells (MTT); type: cell-based, human
Procedure: (§1) Adherent A2780, DU-145 and NHDF cells were grown as mentioned before. Then, the cells were resuspended in the RPMI 1640 (DMEM for HDFa cell line) medium containing 5% FBS (for 24- and 48 h assays) or 10% FBS (for 96 h assays) 1% L-glutamine, and 1% penicillin/streptomycin. This suspension was spread in the wells of a 96-well microtiter plate. Every well in the plates contained 25,000 cells (exceptions: 12,500 cells for the 96h-assay and 10,000 cells for experiments with HDFa cell line) per well per 100 μL and was left at 37 °C in the chamber filled with CO2 (5%) overnight. Stock solutions of prodrugs of different concentrations (1 μL, solvent DMSO) were added to the wells and incubated for 24–96 h. Four experiments were conducted for each concentration of the prodrug. Finally, 3-(4,5-dimethylthiazol-2-yl)-2,5-diphenyltetrazolium bromide (MTT; 20 μL of the solution prepared by dissolving MTT (5 mg) in PBS buffer (1 mL)) was added to each well, incubated for 3 h, treated with sodium dodecyl sulfate (SDS) solution (90 μL, 10% solution in 0.01 M aqueous HCl), and incubated overnight. Then the intensity of absorbance at 590 nm was measured (MTT is converted to blue dye (λmax = 590 nm) in live cells). The absorbance at 690 nm was taken as a baseline value.

[2] = Solubility of prodrugs in aqueous buffers (absorbance at 790 nm); type: physicochemical
Procedure: Prodrugs 5, 7 and 9 (known control) were dissolved in DMSO at concentrations of 15, 10, 5, 2, 1.5, 1, and 0.2 mM. These solutions (10 μL) were transferred to quartz cuvettes containing 990 μL of either Dulbecco's phosphate-buffered saline (DPBS) or Roswell Park Memorial Institute (RPMI) medium containing 20% of fetal bovine serum (FBS) to obtain solutions (or suspensions) with final concentrations of prodrugs-150, 100, 50, 20, 15, 10, and 2 μM. The absorbance at 790 nm of the resulting solutions/suspensions was measured and plotted as a function of the concentration of prodrugs.

DU-145 cells = test: Viability of adherent DU-145 cells (MTT); type: cell-based, human
Procedure: as §1

Jurkat cells [3] = test: Viability and cell death of Jurkat cells (Annexin A5-FITC/PI flow cytometry); type: cell-based, human; details: for Mechanism of cell death of Jurkat cells: 48 h, Ax/PI staining; for IC50: 48 h incubation
Procedure: Jurkat cells were counted in MUSE Cell Analyzer using MUSE® Count &Viability Assay Kit (Merck-Millipore, Billerica, MA, USA) and adjusted to a density of 1.0 × 10^5/mL in RPMI 1640 medium (with 10% FCS and 1% glutamine). A total of 9000 cells per well per 90 μL were seeded into 96 well culture plates. The 50 mM prodrug stock solutions were diluted to 300, 100, 30, and 10 μM in cell culture medium and 10 μL of the dilutions was pipetted to the cells, receiving final test concentrations of 30, 10, 3, and 1 μM. Every concentration was tested in triplicates. Cells with corresponding amounts of DMSO served as negative controls. […] was incubated with 200 μL of freshly prepared staining solution, consisting of 1 μl Annexin A5-Fitc, 0.4 μL 1,1′,3,3,3′,3′-hexamethylindodicarbocyanine iodide (DiIC1(5)) (both from Thermo Fisher Scientific, Waltham, MA, USA), 66.6 ng propidiumiodide (PI) and 33 μM monobromobimane (MBB, both from Sigma-Aldrich, Taufkirchen, Germany) per 1 mL Ringer’s solution (Fresenius Kabi AG, Bad Homburg, Germany). Cells were incubated for 20 min at 4 °C and then analyzed in Gallios cytofluorometer™ (Beckman Coulter, Fullerton, CA, USA). Fitc and propidium iodide were excited at 488 nm; Fitc fluorescence was recorded on the FL1 sensor (525/38 nm band pass, BP) and propidium iodide fluorescence was detected on FL3 sensor (620/30 nm BP), DiIC1(5) fluorescence was excited at 638 nm and detected on FL6 sensor at 675/20 nm. Monobromobimane fluorescence was excited at 405 nm and detected on FL9 sensor at 430/40 nm. To eliminate any fluorescence bleed-through, electronic compensation was used. Data were analyzed employing Kaluza™ software Version 1.2 (Beckman Coulter, Fullerton, CA, USA) and processed in Microsoft Excel. Cells negative for Annexin A5- Fitc and propidium iodide were considered viable. IC50 values were determined by fitting the % values of Ax-PI- cells versus drug concentration with a sigmoidal curve using GraphPad Prism software. Reduced glutathione (an intracellular thiol) can be detected by monobromobimane, a dye that becomes fluorescent after non-enzymatic binding to thiols. For analysis of the amount of mitochondrial membrane potential or reduced glutathione, the mean fluorescence index (MFI) was determined from viable cells by gating on Ax-PI-events.

HDFa cells = test: Viability of adherent HDFa cells (MTT); type: cell-based, human; details: 48 h incubation, normal cells
Procedure: as §1

Jurkat cells [4] = test: Mitochondrial membrane potential of Jurkat cells (DiIC1(5)); type: cell-based, human; details: 48 h; 5 at nontoxic concentrations ≤ 10 μM; 12 at all tested concentrations
Procedure: Jurkat cells were counted in MUSE Cell Analyzer using MUSE® Count &Viability Assay Kit (Merck-Millipore, Billerica, MA, USA) and adjusted to a density of 1.0 × 10^5/mL in RPMI 1640 medium (with 10% FCS and 1% glutamine). A total of 9000 cells per well per 90 μL were seeded into 96 well culture plates. The 50 mM prodrug stock solutions were diluted to 300, 100, 30, and 10 μM in cell culture medium and 10 μL of the dilutions was pipetted to the cells, receiving final test concentrations of 30, 10, 3, and 1 μM. Every concentration was tested in triplicates. Cells with corresponding amounts of DMSO served as negative controls. […] Cells were incubated for 20 min at 4 °C and then analyzed in Gallios cytofluorometer™ (Beckman Coulter, Fullerton, CA, USA). Fitc and propidium iodide were excited at 488 nm; Fitc fluorescence was recorded on the FL1 sensor (525/38 nm band pass, BP) and propidium iodide fluorescence was detected on FL3 sensor (620/30 nm BP), DiIC1(5) fluorescence was excited at 638 nm and detected on FL6 sensor at 675/20 nm. Monobromobimane fluorescence was excited at 405 nm and detected on FL9 sensor at 430/40 nm. To eliminate any fluorescence bleed-through, electronic compensation was used. Data were analyzed employing Kaluza™ software Version 1.2 (Beckman Coulter, Fullerton, CA, USA) and processed in Microsoft Excel. […]

Question: What does the source list for CC1(C)OB(c2ccc(COC(=O)N(Cc3cccc(CN4CCCCC4)c3)[c-]3cccc3)cc2)OC1(C)C.[Fe+2].c1cc[cH-]c1 [prodrug 8]?
Answer: Initial rate (dF/dt)0 of DCFH oxidation in the presence of H2O2 [1]: 17.1 a.u. × min^−1; Activity in DCFH oxidation assay relative to prodrug 5 [1]: 2.2 fold

Question: Which IC50 (BL-2 cells; BL2, 48 h incubation) does the source give for C#Cc1ccc(-c2c3ccc(=[N+](C)C)cc-3oc3cc(N(C)C)ccc23)c(C(=O)[O-])c1 [control 13] here?
Answer: 35 ± 6 µM

Question: What about the IC50 (A2780 cells; Homo sapiens, A2780, 48 h incubation) of the same compound?
Answer: > 50 µM

Question: Which “Solubility in DPBS” value ([2]; DPBS containing DMSO (1%, v/v)) does the source give for COC(=O)CCCCCn1cc(CN(C(=O)OCc2ccc(B3OC(C)(C)C(C)(C)O3)cc2)[c-]2cccc2)nn1.[Fe+2].c1cc[cH-]c1 [prodrug 9] here?
Answer: 90 ± 10 µM

Question: And the “Solubility in FBS” value ([2]; RPMI medium containing 20% FBS and DMSO (1%, v/v))?
Answer: 114 ± 11 µM

Question: What about the IC50 (BL-2 cells; 24 h incubation) of the same compound?
Answer: 37 ± 2 µM

Question: And the IC50 (BL-2 cells; 48 h incubation)?
Answer: 35 ± 2 µM

Question: What about the IC50 (BL-2 cells; 96 h incubation) of the same compound?
Answer: 33 ± 2 µM

Question: And the IC50 (A2780 cells; 24 h incubation)?
Answer: 42 ± 3 µM

Question: And the IC50 (A2780 cells; 48 h incubation)?
Answer: 32 ± 3 µM

Question: What about the IC50 (A2780 cells; 96 h incubation) of the same compound?
Answer: 30 ± 5 µM

Question: What about the IC50 (DU-145 cells; 24 h incubation) of the same compound?
Answer: > 50 µM

Question: And the IC50 (DU-145 cells; 48 h incubation)?
Answer: 47 ± 2 µM

Question: What about the IC50 (DU-145 cells; 96 h incubation) of the same compound?
Answer: 35 ± 3 µM

Question: What about the “Mechanism of cell death of Jurkat cells” value (Jurkat cells [3]) of the same compound?
Answer: mostly via necrosis

Question: What about the IC50 (Jurkat cells [3]) of the same compound?
Answer: 30 ± 4 µM

Question: And the IC50 (HDFa cells)?
Answer: > 50 µM

Question: Which “Initial rate (dF/dt)0 of DCFH oxidation in the presence of H2O2” value [1] does the source give for O=S(=O)([O-])[O-].[Fe+2] [FeSO4] here?
Answer: 22.3 a.u. × min^−1

Question: What about the “Activity in DCFH oxidation assay relative to prodrug 5” value [1] of the same compound?
Answer: 2.9 fold

Question: With CCCC[P+](c1ccccc1)(c1ccccc1)c1ccccc1 [control 12] as the compound, how does the IC50 (BL-2 cells; BL2, 24 h incubation) read?
Answer: 2 ± 1 µM

Question: What about the IC50 (BL-2 cells; BL2, 48 h incubation) of the same compound?
Answer: 0.5 ± 0.2 µM

Question: And the IC50 (BL-2 cells; BL2, 96 h incubation)?
Answer: 0.3 ± 0.1 µM

Question: What about the “Mechanism of cell death of Jurkat cells” value (Jurkat cells [3]) of the same compound?
Answer: mostly via necrosis

Question: What about the IC50 (HDFa cells; Homo sapiens, HDFa) of the same compound?
Answer: < 1 µM

Question: What about the “Effect on mitochondrial potential of Jurkat cells” value (Jurkat cells [4]) of the same compound?
Answer: reduces the mitochondrial potential

Question: What does the source list for [Fe+2].c1cc[cH-]c1.c1cc[cH-]c1 [control 11, ferrocene]?
Answer: IC50 (BL-2 cells; 24 h incubation): > 50 µM; IC50 (BL-2 cells; 48 h incubation): > 50 µM; IC50 (BL-2 cells; 96 h incubation): > 50 µM; IC50 (A2780 cells; 24 h incubation): > 50 µM; IC50 (A2780 cells; 48 h incubation): > 50 µM; IC50 (A2780 cells; 96 h incubation): > 50 µM; IC50 (DU-145 cells; 24 h incubation): > 50 µM; IC50 (DU-145 cells; 48 h incubation): > 50 µM; IC50 (DU-145 cells; 96 h incubation): > 50 µM; IC50 (Jurkat cells [3]): > 50 µM
